Measured values as given in ChEMBL document CHEMBL1201862, “PubChem BioAssay data set” (2004).
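Results reflect a 48-hour exposure of cells in 96-well plates to compound at five concentrations. At the GI50, growth is halved.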 Activity calls are given as the source filed them. Cut-off read from the data, not from the text of the source: active = GI50 up to about 1.1 µM and inactive = higher.

Tests used:
Test in all cases: inhibition of tumour cell growth, NCI panel, 48 h
[1] = test system: EKVX
[2] = test system: SN12C
[3] = test system: RXF 393
[4] = test system: TK-10
[5] = test system: CAKI-1
[6] = test system: Malme-3M
[7] = test system: OVCAR-8
[8] = test system: MOLT-4
[9] = test system: HCT-116
[10] = test system: ACHN
[11] = test system: U-251
[12] = test system: HOP-62
[13] = test system: SW-620
[14] = test system: SNB-19
[15] = test system: PC-3
[16] = test system: UACC-257
[17] = test system: M14
[18] = test system: RPMI-8226
[19] = test system: UO-31
[20] = test system: HT-29

SMILES	GI50 [1]	GI50 [2]	GI50 [3]	GI50 [4]	GI50 [5]	GI50 [6]	GI50 [7]	GI50 [8]	GI50 [9]	GI50 [10]	GI50 [11]	GI50 [12]	GI50 [13]	GI50 [14]	GI50 [15]	GI50 [16]	GI50 [17]	GI50 [18]	GI50 [19]	GI50 [20]
Cc1noc(NC(=O)Nc2ccccc2F)c1C#N	11.6 µM (inactive)	16.1 µM (inactive)	> 66.8 µM (inactive)	> 27.2 µM (inactive)	> 100 µM (inactive)	28.8 µM (inactive)	> 90.8 µM (inactive)	48.9 µM (inactive)	14.4 µM (inactive)	22.2 µM (inactive)	21.5 µM (inactive)	22.3 µM (inactive)	> 100 µM (inactive)	> 35 µM (inactive)	> 21.5 µM (inactive)	30.9 µM (inactive)	> 24.4 µM (inactive)	> 74.8 µM (inactive)	0.918 µM (active)	
COc1ccc(/N=C/N(C)C)c(C)c1	10.6 µM (inactive)	14.2 µM (inactive)	10.6 µM (inactive)	19.8 µM (inactive)	35.6 µM (inactive)	9.57 µM (inactive)	7.13 µM (inactive)	2.6 µM (inactive)	4.15 µM (inactive)	18.7 µM (inactive)	4.28 µM (inactive)	18.3 µM (inactive)		21.6 µM (inactive)	3.17 µM (inactive)	2.42 µM (inactive)	13.6 µM (inactive)	> 100 µM (inactive)	26.1 µM (inactive)	5.4 µM (inactive)
COC1CC(C)(NC(C)=O)C2OC(c3ccccc3)OCC2O1 (stereo not given)	> 100 µM (inactive)	> 100 µM (inactive)	> 100 µM (inactive)	> 100 µM (inactive)	> 100 µM (inactive)	> 100 µM (inactive)	> 100 µM (inactive)	> 100 µM (inactive)	> 100 µM (inactive)	> 100 µM (inactive)	> 100 µM (inactive)	> 100 µM (inactive)	> 100 µM (inactive)	> 100 µM (inactive)	> 100 µM (inactive)	> 100 µM (inactive)	> 100 µM (inactive)	> 100 µM (inactive)	> 100 µM (inactive)	> 100 µM (inactive)
CN1C(=O)c2ccccc2C(O)(c2ccccc2)C1(O)c1ccccc1 (stereo not given)	81.5 µM (inactive)	> 100 µM (inactive)	83.9 µM (inactive)	68.7 µM (inactive)	43.4 µM (inactive)	> 100 µM (inactive)	> 100 µM (inactive)	48.1 µM (inactive)	95.3 µM (inactive)	> 100 µM (inactive)	> 100 µM (inactive)	> 100 µM (inactive)	> 100 µM (inactive)	> 100 µM (inactive)	52.6 µM (inactive)	> 100 µM (inactive)	> 100 µM (inactive)	56.4 µM (inactive)	32.5 µM (inactive)	> 100 µM (inactive)
CC(=O)NC1C(OCC(=O)NCCNc2ccc([N+](=O)[O-])c3[nH]c4ccccc4c(=O)c23)C(O)C(CO)OC1(C)OCc1ccccc1 (stereo not given)	> 100 µM (inactive)	> 100 µM (inactive)	> 100 µM (inactive)	> 100 µM (inactive)	> 100 µM (inactive)	> 10 µM (inactive)	> 100 µM (inactive)	> 100 µM (inactive)	> 100 µM (inactive)	> 100 µM (inactive)	> 100 µM (inactive)	> 100 µM (inactive)	> 100 µM (inactive)	> 100 µM (inactive)	> 100 µM (inactive)	> 100 µM (inactive)	> 100 µM (inactive)	> 100 µM (inactive)	> 100 µM (inactive)	> 100 µM (inactive)
CC1(C)CCCCCCCCCC(C)(CCCCCCCCCCCCO)C1=O (stereo not given)	19.3 µM (inactive)	17.4 µM (inactive)	18.7 µM (inactive)	17.7 µM (inactive)	20.7 µM (inactive)	16.4 µM (inactive)	14.5 µM (inactive)	27.2 µM (inactive)	17.7 µM (inactive)	15 µM (inactive)	17.8 µM (inactive)	22.5 µM (inactive)	18.3 µM (inactive)	13 µM (inactive)	17.4 µM (inactive)	16.2 µM (inactive)		18.7 µM (inactive)	18 µM (inactive)	16.9 µM (inactive)
CCC(c1ccccc1)c1cc(C(C)(C)C)cc(C(C)(C)C)c1O (stereo not given)	17.8 µM (inactive)	17.3 µM (inactive)	20 µM (inactive)	15.5 µM (inactive)	16.2 µM (inactive)	13.9 µM (inactive)	17.3 µM (inactive)		12.9 µM (inactive)	18.6 µM (inactive)	17.7 µM (inactive)	16.2 µM (inactive)	16.5 µM (inactive)	18.3 µM (inactive)	17.7 µM (inactive)	15.2 µM (inactive)	18.6 µM (inactive)	13.6 µM (inactive)	18.4 µM (inactive)	14.9 µM (inactive)
CC(C)(CCCCC(C)(C)NCC1COc2ccccc2O1)NCC1COc2ccccc2O1 (stereo not given)	> 10 µM (inactive)	> 10 µM (inactive)	3.18 µM (inactive)	> 10 µM (inactive)	> 10 µM (inactive)	3.15 µM (inactive)	> 10 µM (inactive)	> 10 µM (inactive)	7.91 µM (inactive)	> 10 µM (inactive)	4.47 µM (inactive)	> 10 µM (inactive)	9.75 µM (inactive)	> 10 µM (inactive)	> 10 µM (inactive)	2.04 µM (inactive)	1.76 µM (inactive)	> 10 µM (inactive)		2.47 µM (inactive)
O=Cc1ccc2c(c1)CC1(C2)Cc2ccc3c(c2C1)CCC3 (stereo not given)	24.3 µM (inactive)	8.45 µM (inactive)	11.2 µM (inactive)	16.6 µM (inactive)	21.1 µM (inactive)	6.22 µM (inactive)	13.1 µM (inactive)	6.41 µM (inactive)	6.82 µM (inactive)	32.1 µM (inactive)	8.51 µM (inactive)	9.4 µM (inactive)	3.98 µM (inactive)	7.08 µM (inactive)	5.51 µM (inactive)	16 µM (inactive)	7 µM (inactive)	6.47 µM (inactive)	11.9 µM (inactive)	19 µM (inactive)
CCOC(=O)/C=C(\C(=O)OCC)n1cc(C)c(=O)n(Cc2cn(CCCCOC(C)=O)nn2)c1=O	9.04 µM (inactive)	20.7 µM (inactive)	1.48 µM (inactive)	7.38 µM (inactive)	3.92 µM (inactive)	2.04 µM (inactive)	8.02 µM (inactive)	2.44 µM (inactive)	11.3 µM (inactive)	4.28 µM (inactive)	15.1 µM (inactive)	18.4 µM (inactive)	3.47 µM (inactive)	20 µM (inactive)	14.3 µM (inactive)	16.1 µM (inactive)	11.9 µM (inactive)	7.35 µM (inactive)	14.5 µM (inactive)	8.32 µM (inactive)
